Test results: the NIST ThermoML archive (doi:10.1021/je060271a)
± gives the expanded uncertainty stated by the source.

Details: 343.15 K, Liquid, Vibrating tube method

Measured: mass density

CCCCC(=O)OCC(COC(=O)CCCC)(COC(=O)CCCC)COC(=O)CCCC [pentaerythritol tetrapentanoate]
992.3 ± 1.2 kg/m3: 18490 kPa
989.6 ± 1.2 kg/m3: 14390 kPa | 14676 kPa | 14864 kPa
988.6 ± 1.2 kg/m3: 13318 kPa | 13346 kPa | 13374 kPa | 13437 kPa
988.2 ± 1.2 kg/m3: 12882 kPa | 12937 kPa
988.7 ± 1.2 kg/m3: 13408 kPa | 13466 kPa | 13495 kPa | 13530 kPa | 13559 kPa
990.5 ± 1.2 kg/m3: 15704 kPa | 15982 kPa | 16016 kPa
991.4 ± 1.2 kg/m3: 17204 kPa | 17243 kPa | 17282 kPa
990.9 ± 1.2 kg/m3: 16378 kPa | 16456 kPa | 16644 kPa
988.5 ± 1.2 kg/m3: 13022 kPa | 13137 kPa | 13198 kPa | 13287 kPa
991.5 ± 1.2 kg/m3: 17371 kPa | 17500 kPa | 17630 kPa
991.2 ± 1.2 kg/m3: 16841 kPa | 16997 kPa | 17035 kPa
991.8 ± 1.2 kg/m3: 17728 kPa | 17998 kPa
990.1 ± 1.2 kg/m3: 15252 kPa | 15458 kPa | 15497 kPa
991.6 ± 1.2 kg/m3: 17330 kPa | 17412 kPa | 17462 kPa | 17533 kPa | 17569 kPa | 17600 kPa | 17666 kPa
990.6 ± 1.2 kg/m3: 15877 kPa | 16052 kPa | 16091 kPa | 16159 kPa
988.4 ± 1.2 kg/m3: 13082 kPa | 13164 kPa | 13226 kPa | 13254 kPa
990.3 ± 1.2 kg/m3: 15537 kPa | 15628 kPa | 15668 kPa | 15742 kPa
990.2 ± 1.2 kg/m3: 15411 kPa | 15578 kPa
989.1 ± 1.2 kg/m3: 13877 kPa | 14110 kPa | 14149 kPa | 14181 kPa
991 ± 1.2 kg/m3: 16493 kPa | 16530 kPa | 16566 kPa | 16602 kPa | 16680 kPa
989 ± 1.2 kg/m3: 13750 kPa | 13780 kPa | 13816 kPa | 13847 kPa | 13976 kPa
988.9 ± 1.2 kg/m3: 13653 kPa | 13719 kPa | 13914 kPa
992 ± 1.2 kg/m3: 18030 kPa | 18068 kPa | 18132 kPa | 18236 kPa
991.1 ± 1.2 kg/m3: 16724 kPa | 16760 kPa | 16796 kPa | 16878 kPa | 16915 kPa | 16959 kPa
988.3 ± 1.2 kg/m3: 12909 kPa | 12964 kPa | 12996 kPa | 13049 kPa | 13109 kPa
991.3 ± 1.2 kg/m3: 17081 kPa | 17119 kPa | 17158 kPa
992.2 ± 1.2 kg/m3: 18204 kPa | 18382 kPa | 18416 kPa
989.8 ± 1.2 kg/m3: 14900 kPa | 14979 kPa | 15053 kPa | 15134 kPa
990.4 ± 1.2 kg/m3: 15774 kPa | 15806 kPa | 15845 kPa | 15910 kPa | 15950 kPa
991.9 ± 1.2 kg/m3: 17765 kPa | 17796 kPa | 17864 kPa | 17896 kPa | 17928 kPa | 17966 kPa | 18171 kPa
990.7 ± 1.2 kg/m3: 16125 kPa | 16233 kPa | 16344 kPa
989.9 ± 1.2 kg/m3: 15016 kPa | 15097 kPa | 15171 kPa | 15214 kPa | 15289 kPa
991.7 ± 1.2 kg/m3: 17697 kPa | 17827 kPa
992.1 ± 1.2 kg/m3: 18100 kPa | 18276 kPa | 18309 kPa | 18342 kPa | 18450 kPa
989.2 ± 1.2 kg/m3: 13945 kPa | 14014 kPa | 14045 kPa | 14077 kPa | 14252 kPa | 14318 kPa
990.8 ± 1.2 kg/m3: 16199 kPa | 16268 kPa | 16302 kPa | 16413 kPa
989.7 ± 1.2 kg/m3: 14641 kPa | 14717 kPa | 14752 kPa | 14787 kPa | 14829 kPa | 14943 kPa
989.3 ± 1.2 kg/m3: 14213 kPa | 14350 kPa
989.4 ± 1.2 kg/m3: 14284 kPa | 14423 kPa | 14457 kPa
992.4 ± 1.2 kg/m3: 18524 kPa
990 ± 1.2 kg/m3: 15334 kPa | 15372 kPa
988.8 ± 1.2 kg/m3: 13594 kPa | 13624 kPa | 13683 kPa
989.5 ± 1.2 kg/m3: 14497 kPa | 14531 kPa | 14566 kPa | 14607 kPa
